Experimental data published in patent publication US9885703B2, “Evaluation method and screening method for sphingosine-1-phosphate 1 (S1P1) receptor agonists” (MEIJI SEIKA PHARMA CO., LTD., priority 2013, dated 2018).
Like-named read-outs stand apart in the source and are kept apart here.

Columns and labels:
[1] = system: number of lymphocytic cells in blood; assay: Efficacy evaluation: number of lymphocytic cells in blood after oral administration; format: in vivo; conditions: male SD rats; for ED50: Rattus norvegicus
Experimental: BAF312 or the compound B was orally administered to male SD rats at different doses. After 3, 6, and 24 hours, and the number of lymphocytic cells in blood was counted using a blood cell counter.

[2] = biological target: T1, S1P1 receptor coupled to Gαi1 (Homo sapiens, UniProt P21453); assay: Gα subtype-specific S1P1 receptor agonist activity (BRET, NPL 7), HEK 293T cells co-expressing S1P1 receptor, Gαi1, Gγ2 and Gβ1; format: cell-based; conditions: Gαi1 expressed
T1 construct: expressed in transfected cells; host or cells: HEK 293T cells
T1 sequence (P21453 whole entry): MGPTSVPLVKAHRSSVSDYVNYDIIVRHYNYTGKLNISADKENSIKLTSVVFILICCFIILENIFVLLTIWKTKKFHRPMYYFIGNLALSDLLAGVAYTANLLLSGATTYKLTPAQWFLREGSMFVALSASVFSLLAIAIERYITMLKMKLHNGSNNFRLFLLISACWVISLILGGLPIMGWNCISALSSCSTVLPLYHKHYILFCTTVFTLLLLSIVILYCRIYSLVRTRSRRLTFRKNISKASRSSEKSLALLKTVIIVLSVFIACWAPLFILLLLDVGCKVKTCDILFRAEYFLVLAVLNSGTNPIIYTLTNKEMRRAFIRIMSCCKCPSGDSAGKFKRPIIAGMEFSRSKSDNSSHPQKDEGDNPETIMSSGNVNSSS
T1 sequence (P63096 2-354 partner limits assumed): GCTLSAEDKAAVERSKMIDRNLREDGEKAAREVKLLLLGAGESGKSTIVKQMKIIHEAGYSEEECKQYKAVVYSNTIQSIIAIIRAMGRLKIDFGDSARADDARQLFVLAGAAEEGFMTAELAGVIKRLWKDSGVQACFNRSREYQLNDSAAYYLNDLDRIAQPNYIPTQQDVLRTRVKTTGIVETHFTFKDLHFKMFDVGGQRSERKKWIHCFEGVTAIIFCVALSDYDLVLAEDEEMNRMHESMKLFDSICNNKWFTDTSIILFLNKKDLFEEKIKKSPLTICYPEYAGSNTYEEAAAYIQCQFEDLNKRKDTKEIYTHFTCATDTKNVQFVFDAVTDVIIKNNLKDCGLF
T1 sequence (P62873 2-340 partner limits assumed): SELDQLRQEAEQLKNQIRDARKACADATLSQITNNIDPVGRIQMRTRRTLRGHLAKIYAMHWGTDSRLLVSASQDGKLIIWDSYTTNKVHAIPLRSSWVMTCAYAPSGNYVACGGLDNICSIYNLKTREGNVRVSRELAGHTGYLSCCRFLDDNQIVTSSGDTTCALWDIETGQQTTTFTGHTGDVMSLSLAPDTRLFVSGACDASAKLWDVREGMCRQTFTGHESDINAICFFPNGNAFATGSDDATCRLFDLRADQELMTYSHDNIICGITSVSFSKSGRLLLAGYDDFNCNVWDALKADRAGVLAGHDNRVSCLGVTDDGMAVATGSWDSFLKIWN
T1 sequence (P59768 2-68 partner limits assumed): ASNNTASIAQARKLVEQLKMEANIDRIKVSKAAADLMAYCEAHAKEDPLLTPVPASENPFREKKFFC
Source text: (§1) In the present invention, an agonist activity specific to a Gαi subtype can be measured, for example, according to the method described in the present Example 1 (2) (the method described in NPL 7). To be more specific, by allowing cells to express an S1P1 receptor and a particular Gα subtype together with Gγ2 and Gβ1, an agonist activity can be measured on the basis of a difference in percentage between the Gα protein and the Gβγ protein caused by an S1P1 receptor agonist.
(§2) Next, the Gα protein subtype-specific S1P1 receptor agonist activities were evaluated according to the method described in NPL 7. Note that the expression conditions followed the section of “Supplementary Methods” in NPL 7, and the measurement conditions followed the section of “Bioluminescence resonance energy transfer measurement.”
(§3) First, HEK 293T cells were allowed to co-express an S1P1 receptor, a particular Gα subtype (Gαi1, Gαi2, or Gαi3), Gγ2, and Gβ1. Then, on the basis of a difference in percentage between the Gα protein and the Gβγ protein caused by the endogenous agonist S1P, the agonist activity was measured.

[3] = Blood concentration in the guinea pig cardiotoxicity model; format: in vivo; conditions: male, whole blood, intravenous, guinea pigs, 0.01 mg/kg infusion for 10 minutes
Experimental: (§4) In this model, the guinea pigs used were highly responsive to an S1P1 receptor, and further the model was capable of reliable detection of S1P1 receptor-dependent cardiotoxicity under anesthesia. An electrocardiograph and a pacing device were attached to the male guinea pigs whose breathings were artificially controlled under anesthesia, and the drugs were administered.
In addition, the blood concentrations of BAF312 and the compound B when the administrations were completed were respectively 17 nM and 91 nM. The blood concentrations after 1 hour were respectively <4 nM and 27 nM.

[4] = biological target: T2, S1P1 receptor (Homo sapiens, UniProt P21453); assay: General S1P1 receptor agonist activity, CHO cells expressing S1P1 receptor (method of Experimental Example 1 of PTL 1); format: cell-based; conditions: method of PTL 1
T2 construct: expressed in transfected cells; host or cells: CHO cells
T2 sequence (P21453 whole entry): as the sequence (P21453 whole entry) above
Source text: As a general method for evaluating an S1P1 receptor agonist activity, there has been known a method which uses CHO cells expressing a S1P1 receptor, and the like to measure an agonist activity on the basis of binding to the receptor and a signal transduction activity through the binding (PTL 1).

[5] = system: complete AV block; assay: Cardiotoxicity evaluation: AV block in guinea pigs under anesthesia; format: in vivo, male guinea pigs; conditions: anesthetized guinea pigs, 0.01 mg/kg by infusion for 10 minutes
Experimental: as §4

[6] = biological target: T3, S1P1 receptor coupled to Gαi3 (Homo sapiens, UniProt P21453); assay: Gα subtype-specific S1P1 receptor agonist activity (BRET, NPL 7), HEK 293T cells co-expressing S1P1 receptor, Gαi3, Gγ2 and Gβ1; format: cell-based; conditions: Gαi3 expressed
T3 construct: expressed in transfected cells; host or cells: HEK 293T cells
T3 sequence (P21453 whole entry): as above
T3 sequence (P08754 2-354 partner limits assumed): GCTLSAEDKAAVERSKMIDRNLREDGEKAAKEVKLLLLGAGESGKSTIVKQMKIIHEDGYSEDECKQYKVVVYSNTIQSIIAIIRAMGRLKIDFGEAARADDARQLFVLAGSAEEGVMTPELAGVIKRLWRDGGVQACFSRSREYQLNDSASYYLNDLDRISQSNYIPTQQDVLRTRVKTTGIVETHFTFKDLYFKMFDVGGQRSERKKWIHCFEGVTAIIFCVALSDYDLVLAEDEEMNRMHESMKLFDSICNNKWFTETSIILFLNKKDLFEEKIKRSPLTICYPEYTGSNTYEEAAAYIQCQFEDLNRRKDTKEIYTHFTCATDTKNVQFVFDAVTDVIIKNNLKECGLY
T3 sequence (P62873 2-340 partner limits assumed): as the sequence (P62873 2-340 partner limits assumed) above
T3 sequence (P59768 2-68 partner limits assumed): as the sequence (P59768 2-68 partner limits assumed) above
Source text: as §1, §2, §3

[7] = biological target: T4, S1P1 receptor coupled to Gαi2 (Homo sapiens, UniProt P21453); assay: Gα subtype-specific S1P1 receptor agonist activity (BRET, NPL 7), HEK 293T cells co-expressing S1P1 receptor, Gαi2, Gγ2 and Gβ1; format: cell-based; conditions: Gαi2 expressed
T4 construct: expressed in transfected cells; host or cells: HEK 293T cells
T4 sequence (P21453 whole entry): as the sequence (P21453 whole entry) above
T4 sequence (P04899 2-355 partner limits assumed): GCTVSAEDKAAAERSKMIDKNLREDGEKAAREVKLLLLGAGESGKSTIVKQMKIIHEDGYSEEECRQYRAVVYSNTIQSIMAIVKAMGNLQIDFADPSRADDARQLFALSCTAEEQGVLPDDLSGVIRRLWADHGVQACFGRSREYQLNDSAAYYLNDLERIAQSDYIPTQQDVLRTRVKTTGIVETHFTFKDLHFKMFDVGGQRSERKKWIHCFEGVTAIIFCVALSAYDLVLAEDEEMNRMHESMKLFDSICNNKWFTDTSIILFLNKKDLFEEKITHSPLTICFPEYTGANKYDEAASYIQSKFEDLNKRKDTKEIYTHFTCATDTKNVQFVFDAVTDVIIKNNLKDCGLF
T4 sequence (P62873 2-340 partner limits assumed): as the sequence (P62873 2-340 partner limits assumed) above
T4 sequence (P59768 2-68 partner limits assumed): as the sequence (P59768 2-68 partner limits assumed) above
Source text: as §1, §2, §3

[8] = biological target: S1P receptor; conditions: reported generally, varies with evaluation method; read-out: 50% activation concentration (EC50 value) as an agonist activity against an S1P receptor; cited from earlier work

| EC50 [2] | EC50 [4] | EC50 [6] | EC50 [7] | SMILES | ED50 ([1]; 6 hours, read-out: dose for suppressing the number of lymphocytic cells by 50% (ED50) after 6 hours) | ED50 ([1]; 24 hours, read-out: dose for suppressing the number of lymphocytic cells by 50% (ED50) after 24 hours) | effective blood concentration after 24 hours ([1]; 24 hours, calculated) | concentration at 1 h ([3]; after 1 hour) | concentration at 10 min ([3]; end of administration, read-out: blood concentration when the administration was completed) | expression of complete AV block (cases) ([5]; four cases) | continuation of complete AV block ([5]; until 1 hour) | EC50 [8] |
| --- | --- | --- | --- | --- | --- | --- | --- | --- | --- | --- | --- | --- |
| 122 nM | 3 nM | 27 nM | 81 nM | CCc1cc(/C(C)=N/OCc2ccc(C3CCCCC3)c(C(F)(F)F)c2)ccc1CN1CC(C(=O)O)C1 [BAF312, Siponimod] | 0.1 mg/kg | > 1 mg/kg | > 208 nM | < 4 nM | 17 nM | four out of four cases | continued in all the cases until 1 hour elapsed |  |
| 261 nM | 6.4 nM | 8.4 nM | 14.6 nM | CCCCCCCCCCCCC/C=C/[C@@H](O)[C@@H](N)COP(=O)(O)O [Compound S1P, sphingosine-1-phosphate] |  |  |  |  |  |  |  | ~10 nM |
